Assay results as given in ChEMBL document CHEMBL3797052 (Eur J Med Chem, 2016).

Tested on: not listed separately
Test: Antiproliferative activity against human LOXIMVI cells assessed as cell growth at 10^-5 M after 48 hrs by sulforhodamine B assay
Type: functional
Settings: LOX IMVI, read-out: Activity

Structure (SMILES)	growth at 10 µM
CNC(=O)c1cc(Oc2ccc3nc(NC(=O)Nc4ccc(Cl)c(Cl)c4)sc3c2)ccn1	-79%

Tested on: not listed separately
Test: Antiproliferative activity against human SF268 cells assessed as cell growth at 10^-5 M after 48 hrs by sulforhodamine B assay
Type: functional
Settings: SF-268, 48 h, read-out: Activity

Structure (SMILES)	growth at 10 µM
CNC(=O)c1cc(Oc2ccc3nc(NC(=O)Nc4ccc(Cl)c(Cl)c4)sc3c2)ccn1	-57%

Tested on: U-251
Test: Antiproliferative activity against human U251 cells assessed as growth inhibition after 48 hrs by sulforhodamine B assay
Type: functional
Settings: U-251, 48 h

Structure (SMILES)	GI50	LC50	TGI
CNC(=O)c1cc(Oc2ccc3nc(NC(=O)Nc4ccc(Cl)c(Cl)c4)sc3c2)ccn1	1.83 µM	6.53 µM	3.46 µM

Tested on: not listed separately
Test: Antiproliferative activity against human SF539 cells assessed as cell growth at 10^-5 M after 48 hrs by sulforhodamine B assay
Type: functional
Settings: SF-539, 48 h, read-out: Activity

Structure (SMILES)	growth at 10 µM
CNC(=O)c1cc(Oc2ccc3nc(NC(=O)Nc4ccc(Cl)c(Cl)c4)sc3c2)ccn1	-49%

Tested on: SK-MEL-5
Test: Antiproliferative activity against human SK-MEL-5 cells assessed as cell growth at 10^-5 M after 48 hrs by sulforhodamine B assay
Type: functional
Settings: SK-MEL-5, 48 h, read-out: Activity

Structure (SMILES)	growth at 10 µM
CNC(=O)c1cc(Oc2ccc3nc(NC(=O)Nc4ccc(Cl)c(Cl)c4)sc3c2)ccn1	-32%

Tested on: not listed separately
Test: Antiproliferative activity against human UACC62 cells assessed as cell growth at 10^-5 M after 48 hrs by sulforhodamine B assay
Type: functional
Settings: UACC-62, 48 h, read-out: Activity

Structure (SMILES)	growth at 10 µM
CNC(=O)c1cc(Oc2ccc3nc(NC(=O)Nc4ccc(Cl)c(Cl)c4)sc3c2)ccn1	-11%

Tested on: HT-29
Test: Antiproliferative activity against human HT-29 cells assessed as cell growth at 10^-5 M after 48 hrs by sulforhodamine B assay
Type: functional
Settings: HT-29, 48 h, read-out: Activity

Structure (SMILES)	growth at 10 µM
CNC(=O)c1cc(Oc2ccc3nc(NC(=O)Nc4ccc(Cl)c(Cl)c4)sc3c2)ccn1	-61%

Tested on: CCRF-CEM
Test: Antiproliferative activity against human CCRF-CEM cells assessed as cell growth at 10^-5 M after 48 hrs by sulforhodamine B assay
Type: functional
Settings: read-out: Activity

Structure (SMILES)	growth at 10 µM
CNC(=O)c1cc(Oc2ccc3nc(NC(=O)Nc4ccc(Cl)c(Cl)c4)sc3c2)ccn1	76%

Tested on: A549
Test: Antiproliferative activity against human A549/ATCC cells assessed as cell growth at 10^-4 M after 48 hrs by sulforhodamine B assay
Type: functional
Settings: A549, 48 h, read-out: Activity

Structure (SMILES)	growth at 100 µM
CNC(=O)c1cc(Oc2ccc3nc(NC(=O)Nc4ccc(Cl)c(Cl)c4)sc3c2)ccn1	-41%

Tested on: ACHN
Test: Antiproliferative activity against human ACHN cells assessed as cell growth at 10^-7 M after 48 hrs by sulforhodamine B assay
Type: functional
Settings: read-out: Activity

Structure (SMILES)	growth at 0.1 µM
CNC(=O)c1cc(Oc2ccc3nc(NC(=O)Nc4ccc(Cl)c(Cl)c4)sc3c2)ccn1	94%

Tested on: not listed separately
Test: Antiproliferative activity against human PC3 cells assessed as cell growth at 10^-5 M after 48 hrs by sulforhodamine B assay
Type: functional
Settings: PC-3, 48 h, read-out: Activity

Structure (SMILES)	growth at 10 µM
CNC(=O)c1cc(Oc2ccc3nc(NC(=O)Nc4ccc(Cl)c(Cl)c4)sc3c2)ccn1	-53%

Tested on: SR
Test: Antiproliferative activity against human SR cells assessed as cell growth at 10^-5 M after 48 hrs by sulforhodamine B assay
Type: functional
Settings: read-out: Activity

Structure (SMILES)	growth at 10 µM
CNC(=O)c1cc(Oc2ccc3nc(NC(=O)Nc4ccc(Cl)c(Cl)c4)sc3c2)ccn1	39%

Tested on: NCI-H522
Test: Antiproliferative activity against human NCI-H522 cells assessed as growth inhibition after 48 hrs by sulforhodamine B assay
Type: functional
Settings: NCI-H522, 48 h

Structure (SMILES)	GI50	LC50 (concentration killing 50% of cells)	TGI
CNC(=O)c1cc(Oc2ccc3nc(NC(=O)Nc4ccc(Cl)c(Cl)c4)sc3c2)ccn1	4.09 µM	> 100 µM	> 100 µM

Tested on: not listed separately
Test: Antiproliferative activity against human RXF393 cells assessed as cell growth at 10^-5 M after 48 hrs by sulforhodamine B assay
Type: functional
Settings: RXF 393, 48 h, read-out: Activity

Structure (SMILES)	growth at 10 µM
CNC(=O)c1cc(Oc2ccc3nc(NC(=O)Nc4ccc(Cl)c(Cl)c4)sc3c2)ccn1	-74%

Tested on: ACHN
Test: Antiproliferative activity against human ACHN cells assessed as cell growth at 10^-5 M after 48 hrs by sulforhodamine B assay
Type: functional
Settings: read-out: Activity

Structure (SMILES)	growth at 10 µM
CNC(=O)c1cc(Oc2ccc3nc(NC(=O)Nc4ccc(Cl)c(Cl)c4)sc3c2)ccn1	-30%

Tested on: not listed separately
Test: Antiproliferative activity against human HL-60(TB) cells assessed as cell growth at 10^-8 M after 48 hrs by sulforhodamine B assay
Type: functional
Settings: HL-60, 48 h, read-out: Activity

Structure (SMILES)	growth at 0.01 µM
CNC(=O)c1cc(Oc2ccc3nc(NC(=O)Nc4ccc(Cl)c(Cl)c4)sc3c2)ccn1	102%

Tested on: NCI-H23
Test: Antiproliferative activity against human NCI-H23 cells assessed as cell growth at 10^-5 M after 48 hrs by sulforhodamine B assay
Type: functional
Settings: NCI-H23, 48 h, read-out: Activity

Structure (SMILES)	growth at 10 µM
CNC(=O)c1cc(Oc2ccc3nc(NC(=O)Nc4ccc(Cl)c(Cl)c4)sc3c2)ccn1	2%

Tested on: not listed separately
Test: Antiproliferative activity against human SNB19 cells assessed as cell growth at 10^-5 M after 48 hrs by sulforhodamine B assay
Type: functional
Settings: SNB-19, 48 h, read-out: Activity

Structure (SMILES)	growth at 10 µM
CNC(=O)c1cc(Oc2ccc3nc(NC(=O)Nc4ccc(Cl)c(Cl)c4)sc3c2)ccn1	-67%

Tested on: not listed separately
Test: Antiproliferative activity against human SF295 cells assessed as cell growth at 10^-5 M after 48 hrs by sulforhodamine B assay
Type: functional
Settings: SF-295, 48 h, read-out: Activity

Structure (SMILES)	growth at 10 µM
CNC(=O)c1cc(Oc2ccc3nc(NC(=O)Nc4ccc(Cl)c(Cl)c4)sc3c2)ccn1	-81%

Tested on: NCI-H322M
Test: Antiproliferative activity against human NCI-H322M cells assessed as cell growth at 10^-5 M after 48 hrs by sulforhodamine B assay
Type: functional
Settings: read-out: Activity

Structure (SMILES)	growth at 10 µM
CNC(=O)c1cc(Oc2ccc3nc(NC(=O)Nc4ccc(Cl)c(Cl)c4)sc3c2)ccn1	-4%

Tested on: U-251
Test: Antiproliferative activity against human U251 cells assessed as cell growth at 10^-5 M after 48 hrs by sulforhodamine B assay
Type: functional
Settings: U-251, 48 h, read-out: Activity

Structure (SMILES)	growth at 10 µM
CNC(=O)c1cc(Oc2ccc3nc(NC(=O)Nc4ccc(Cl)c(Cl)c4)sc3c2)ccn1	-84%

Tested on: MCF7
Test: Antiproliferative activity against human MCF7 cells assessed as cell growth at 10^-6 M after 48 hrs by sulforhodamine B assay
Type: functional
Settings: MCF7, 48 h, read-out: Activity

Structure (SMILES)	growth at 1 µM
CNC(=O)c1cc(Oc2ccc3nc(NC(=O)Nc4ccc(Cl)c(Cl)c4)sc3c2)ccn1	84%

Tested on: EKVX
Test: Antiproliferative activity against human EKVX cells assessed as cell growth at 10^-5 M after 48 hrs by sulforhodamine B assay
Type: functional
Settings: read-out: Activity

Structure (SMILES)	growth at 10 µM
CNC(=O)c1cc(Oc2ccc3nc(NC(=O)Nc4ccc(Cl)c(Cl)c4)sc3c2)ccn1	16%

Tested on: not listed separately
Test: Antiproliferative activity against human OVCAR3 cells assessed as cell growth at 10^-8 M after 48 hrs by sulforhodamine B assay
Type: functional
Settings: OVCAR-3, 48 h, read-out: Activity

Structure (SMILES)	growth at 0.01 µM
CNC(=O)c1cc(Oc2ccc3nc(NC(=O)Nc4ccc(Cl)c(Cl)c4)sc3c2)ccn1	101%

Tested on: not listed separately
Test: Antiproliferative activity against human HL-60(TB) cells assessed as cell growth at 10^-5 M after 48 hrs by sulforhodamine B assay
Type: functional
Settings: HL-60, 48 h, read-out: Activity

Structure (SMILES)	growth at 10 µM
CNC(=O)c1cc(Oc2ccc3nc(NC(=O)Nc4ccc(Cl)c(Cl)c4)sc3c2)ccn1	95%

Tested on: not listed separately
Test: Antiproliferative activity against human UACC62 cells assessed as cell growth at 10^-4 M after 48 hrs by sulforhodamine B assay
Type: functional
Settings: UACC-62, 48 h, read-out: Activity

Structure (SMILES)	growth at 100 µM
CNC(=O)c1cc(Oc2ccc3nc(NC(=O)Nc4ccc(Cl)c(Cl)c4)sc3c2)ccn1	-20%

Tested on: not listed separately
Test: Antiproliferative activity against human SW620 cells assessed as cell growth at 10^-5 M after 48 hrs by sulforhodamine B assay
Type: functional
Settings: SW-620, 48 h, read-out: Activity

Structure (SMILES)	growth at 10 µM
CNC(=O)c1cc(Oc2ccc3nc(NC(=O)Nc4ccc(Cl)c(Cl)c4)sc3c2)ccn1	42%

Tested on: K562
Test: Antiproliferative activity against human K562 cells assessed as cell growth at 10^-5 M after 48 hrs by sulforhodamine B assay
Type: functional
Settings: K562, 48 h, read-out: Activity

Structure (SMILES)	growth at 10 µM
CNC(=O)c1cc(Oc2ccc3nc(NC(=O)Nc4ccc(Cl)c(Cl)c4)sc3c2)ccn1	55%

Tested on: not listed separately
Test: Antiproliferative activity against human OVCAR3 cells assessed as growth inhibition after 48 hrs by sulforhodamine B assay
Type: functional
Settings: OVCAR-3, 48 h

Structure (SMILES)	GI50	LC50	TGI
CNC(=O)c1cc(Oc2ccc3nc(NC(=O)Nc4ccc(Cl)c(Cl)c4)sc3c2)ccn1	2.3 µM	> 100 µM	5.38 µM

Tested on: not listed separately
Test: Antiproliferative activity against human DU145 cells assessed as cell growth at 10^-5 M after 48 hrs by sulforhodamine B assay
Type: functional
Settings: DU-145, 48 h, read-out: Activity

Structure (SMILES)	growth at 10 µM
CNC(=O)c1cc(Oc2ccc3nc(NC(=O)Nc4ccc(Cl)c(Cl)c4)sc3c2)ccn1	-25%

Tested on: not listed separately
Test: Antiproliferative activity against human BT549 cells assessed as cell growth at 10^-7 M after 48 hrs by sulforhodamine B assay
Type: functional
Settings: BT-549, 48 h, read-out: Activity

Structure (SMILES)	growth at 0.1 µM
CNC(=O)c1cc(Oc2ccc3nc(NC(=O)Nc4ccc(Cl)c(Cl)c4)sc3c2)ccn1	104%

Tested on: not listed separately
Test: Antiproliferative activity against human HCT116 cells assessed as cell growth at 10^-5 M after 48 hrs by sulforhodamine B assay
Type: functional
Settings: HCT-116, 48 h, read-out: Activity

Structure (SMILES)	growth at 10 µM
CNC(=O)c1cc(Oc2ccc3nc(NC(=O)Nc4ccc(Cl)c(Cl)c4)sc3c2)ccn1	-50%

Tested on: not listed separately
Test: Antiproliferative activity against human HCC2998 cells assessed as cell growth at 10^-5 M after 48 hrs by sulforhodamine B assay
Type: functional
Settings: HCC 2998, 48 h, read-out: Activity

Structure (SMILES)	growth at 10 µM
CNC(=O)c1cc(Oc2ccc3nc(NC(=O)Nc4ccc(Cl)c(Cl)c4)sc3c2)ccn1	29%

Tested on: MDA-MB-435
Test: Antiproliferative activity against human MDA-MB-435 cells assessed as cell growth at 10^-5 M after 48 hrs by sulforhodamine B assay
Type: functional
Settings: MDA-MB-435, 48 h, read-out: Activity

Structure (SMILES)	growth at 10 µM
CNC(=O)c1cc(Oc2ccc3nc(NC(=O)Nc4ccc(Cl)c(Cl)c4)sc3c2)ccn1	-47%

Tested on: not listed separately
Test: Antiproliferative activity against human NCI-ADR-RES cells assessed as cell growth at 10^-5 M after 48 hrs by sulforhodamine B assay
Type: functional
Settings: read-out: Activity

Structure (SMILES)	growth at 10 µM
CNC(=O)c1cc(Oc2ccc3nc(NC(=O)Nc4ccc(Cl)c(Cl)c4)sc3c2)ccn1	-43%

Tested on: MDA-MB-468
Test: Antiproliferative activity against human MDA-MB-468 cells assessed as cell growth at 10^-5 M after 48 hrs by sulforhodamine B assay
Type: functional
Settings: MDA-MB-468, 48 h, read-out: Activity

Structure (SMILES)	growth at 10 µM
CNC(=O)c1cc(Oc2ccc3nc(NC(=O)Nc4ccc(Cl)c(Cl)c4)sc3c2)ccn1	-36%
